Test results from publication PMC10636063, “Progesterone activation of β1-containing BK channels involves two binding sites” (Nature Communications, 2023).
Several values for one entry are separate records, joined by “and”; a condition that tells them apart may be missing. Equal entries are not always repeated. Where two headings read alike, the source gives them in different places.

How the values were obtained:
[1] = system: de-endothelialized, pressurized MCA segments (C57BL/6); test: Cerebral artery diameter in vitro, de-endothelialized pressurized MCA segments; set-up: species or system mouse
Excerpt: Eight-12 week-old C57BL/6J and KCNMB1^−/− on C57BL/6 background mice of both sexes were deeply anesthetized with isoflurane via inhalation in a tightly sealed jar. Resistance size MCAs (~100 μm in external diameter) were dissected out of the mouse brains after animal euthanasia with sharp scissors. For de-endothelialized records, the endothelium was removed by passing an air bubble into the vessel lumen for 90 s[30]. This method has been consistently used by our group and validated using endothelium-dependent versus endothelium-independent vasodilators[16],[26]. Arteries were cannulated as previously described by our group[26],[40]. MCAs were cut into 5 to 10 mm-long segments under a microscope (Nikon SMZ645). The segment was cannulated at each end, and the artery exterior was continuously perfused with physiologic sodium saline (PSS) of the following composition (mM): 119 NaCl, 4.7 KCl, 1.2 KH2PO4, 1.6 CaCl2, 1.2 MgSO4, 0.023 EDTA, 11 glucose, 24 NaHCO3, pH=7.4. PSS was continuously bubbled with an O2/CO2/N2 (21/5/74%) gas mixture and maintained at 35–37 °C. The artery external wall diameter was measured using the automatic edge-detection function of lonWizard software (lonOptix) via Sanyo VCB-3512T camera (Sanyo Electric Co.). Arteries were first incubated at an intravascular pressure of 10 mm Hg for 10 min. Then intravascular pressure was increased to 60 mmHg and held steady throughout the experiment to induce myogenic tone development and maintenance[19],[30],[51]. Each artery segment was exposed to PROG, PROG-oxime (in presence and absence of 1 µM paxilline) only once to avoid development of desensitization during repeated applications of PROG-containing solution. To determine arterial viability, arterial contractility was probed with a high KCl solution at the end of each experiment. The high KCl solution was composed of the following composition (mM): 63.7 NaCl, 60 KCl, 1.2 KH2PO4, 1.2 MgSO4, 0.023 EDTA, 11 glucose, 24 NaHCO3, 1.6 CaCl2, pH=7.4. Like PSS, the high-KCl solution was continuously bubbled with O2/CO2/N2 (21/5/74%) gas mixture and maintained at 35–37 °C.

[2] = molecular target: T1, BK β1 subunit (KCNMB1 product) (Rattus norvegicus, UniProt P97678); test: Thermal unfolding (microscale thermophoresis, Prometheus) of purified wt β1; assay type: binding; conditions: for effect on thermal unfolding / binding: vs DMSO
T1 construct: FLAG (DYKDDDDK); made in house; host or cells: CHO cells, transient transfection, anti-flag immunoprecipitation
T1 sequence (P97678 1-191): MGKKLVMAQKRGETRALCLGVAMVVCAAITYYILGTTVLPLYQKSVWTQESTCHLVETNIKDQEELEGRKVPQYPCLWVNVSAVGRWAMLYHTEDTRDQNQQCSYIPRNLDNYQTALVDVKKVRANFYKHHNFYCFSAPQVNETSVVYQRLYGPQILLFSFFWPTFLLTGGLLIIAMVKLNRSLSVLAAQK
Excerpt: BK channel-forming slo1 cDNA (cbv1 isoform; AY330293) was cloned from rat cerebral artery SM cells, and inserted into pcDNA3.1 vector as described. BK β1 cDNA (KCNMB1 product; NP_011452; FJ154955) were isolated from rat cerebral artery SM cells and cloned as described. β4 cDNA (KCNMB4; NP_055320; AY028605) were generously provided by Dr. Ligia Toro. CHO cells were transiently transfected with cbv1 ± β1-, or β4-carrying pcDNA3.1 using X-tremeGENE HP (Sigma-Aldrich). Mutations to β1/4 cDNAs were conducted by Genscript, with sequences being confirmed to be >99% identical to KCNMB1 product; NP_011452 or β4 KCNMB4; NP_055320; respectively. β1/4 and mutant constructs were flag-tagged (DYKDDDDK-tag) by Genscript services for subsequent immunoprecipitation and use in microscale thermophoresis studies.
Wt β1, wt β4 and mutant constructs were purified by immunoprecipitation using Dynabeads Protein G Kit (10007D by Invitrogen) and following the manufacturer’s instructions. Rabbit polyclonal anti-flag antibody (10 µg; Abcam, Cat# ab205606, RRID:AB_2916341) was cross-linked with dynabeads. Transfected CHO cell lysate supernatant was divided into aliquots containing […] per column. Following precipitation, kit instructions for non-denaturing elutions were followed; one elution of 30 µl was collected for each column, and pH was adjusted to 7.5 using UltraPure 1 M Tris-HCI buffer pH 7.5 (cat# 15567027 by Fisher Scientific). PROG stock or vehicle control (DMSO) was added to the eluate to reach PROG final concentrations (0.004-40 µM), all dissolved within the same concentration of DMSO. Glass capillaries were prepared and loaded in triplicates into Prometheus (Nanotemper) and heated from 15° to 95 °C at a rate of 1°/min, the largest thermal scale available to run in the Nanotemper PR.therm-control software. The unfolding profile of a protein is a plot of its fluorescence signal against temperature. The protein is heated at a defined ramp over a specified temperature range. During the heating process, fluorescence is recorded at 330 and 350 nm. The resulting fluorescence ratio change is then analyzed for onset and inflection points. The temperature of onset and inflection is determined using built-in analysis function in Nanotemper PR.therm-control software. The onset of unfolding or aggregation is the temperature at which the channel conformation (unfolding or aggregation) process first starts. […] Onset and inflection points were validated by comparing the first-derivative variations between technical triplicates (high degrees of variations in the first derivative are shown in Supplementary Fig. 1b, c). CRC data obtained from microscale thermophoresis experiments were fitted to a Boltzmann function of the type: y=A1−A2/1+e^x−x0+A2 using Origin 2020 software (OriginLab; OriginLab Corporation).

[3] = 10 μM in the presence of 1 μM paxilline
[4] = Δ onset to inflection vs concentration

CC(=O)[C@H]1CC[C@H]2[C@@H]3CCC4=CC(=O)CC[C@]4(C)[C@H]3CC[C@]12C [PROG, Progesterone]
vasoactive response of MCA segments [1, 3]: lost | vasoactive response of MCA segments ([1]; 10 μM, male and female mice): dilated MCA segments | percent changes in MCA diameter ([1]; male mice, 10 μM PROG, individual arterial segments): 4.2471% and 1.678% and 1.882% and 1.946% and 2.105% and 8.38% and 2.776% and 5.128% and 1.929% and 4.348% | concentrations optimal to bind β1 as determined by MST [2]: 4 to 10 µM | delta (Δ) of onset to inflection point ([2]; 0.004 µM PROG, individual records (Fig 1B)): 5.26 and 13.2518 and 6.093 and 5.155 and 14.4223 and 5.701 and 4.973 and 10.2833 and 5.781 and 6.3298 and 7.116 | delta (Δ) of onset to inflection point ([2]; 0.04 µM PROG, individual records (Fig 1B)): 5.943 and 2.008 and 8.93 and 4.708 and 3.29 and 2.039 and 5.415 and 2.123 and 6.078 and 9.405 and 14.8911 and 5.538 | delta (Δ) of onset to inflection point ([2]; 0.4 µM PROG, individual records (Fig 1B)): 3.821 and 6.41 and 2.29 and 0.9082 and 1.393 and 3.976 and 4.647 and 6.669 and 3.779 and 6.772 | delta (Δ) of onset to inflection point ([2]; 1.3 µM PROG, individual records (Fig 1B)): 10.9265 and 4.989 and 3.478 and 3.054 and 2.195 and 4.0816 | delta (Δ) of onset to inflection point ([2]; 4 µM PROG, individual records (Fig 1B)): 4.355 and 17.5013 and 19.981 and 4.864 and 5.088 and 8.156 and 15.523 and 3.088 and 7.882 and 12.3542 and 0.9184 and 8.919 and 6.947 and 9.668 | delta (Δ) of onset to inflection point ([2]; 10 µM PROG, individual records (Fig 1B)): 12.73 and 36.72 and 4.56 and 4.587 and 4.664 and 11.45 and 5.307 and 5.645 and 4.368 and 3.818 | delta (Δ) of onset to inflection point ([2]; 10 μM PROG, individual records (Fig 1C, SFig1A)): 9.668 and 4.355 and 17.5013 and 19.981 and 4.864 and 5.088 and 8.156 and 15.523 and 3.088 and 7.882 and 12.3542 and 0.9184 and 8.919 and 6.947 | delta (Δ) of onset to inflection point ([2]; 40 µM PROG, individual records (Fig 1B)): 6.851 and 14.1513 and 13.0079 and 8.574 and 9.969 and 3.1593 and 5.59 and 5.656 | effect on thermal unfolding / binding [2]: decreases the difference in delta between the onset inflection events | high-affinity binding process: concentration at maximum [2, 4]: 0.4 to 1 µM | low-affinity binding process: concentration at maximum [2, 4]: 10 µM | EC50 ([2]; Δ onset to inflection vs concentration, read-out: high-affinity binding process: 50% value): 40 nM | EC50 ([2]; Δ onset to inflection vs concentration, read-out: low-affinity binding process: 50% value): ~2200 nM

CC(=O)C1CCC2C3CCC4=CC(=NOCC(=O)O)CCC4(C)C3CCC12C (centres unmarked) [PROG-oxime, progesterone 3-(O-carboxymethyl)oxime]
vasoactive response of MCA segments [1, 3]: MCA constriction that was preserved | vasoactive response of MCA segments ([1]; 10 μM, male and female mice): failed to evoke MCA dilation | effect on thermal unfolding / binding [2]: actual binding to wt β1
